Results published in the supplement of paper PMC10307832.

Legend:
Experiment in all cases: relative viability (nuclei count vs DMSO), 5 days (fraction); higher = more cells survive
A-427 = test system: A-427
Method in brief: (§1)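 Relative viability divides the nuclei count in treated wells by that in vehicle wells. Lung cancer cell lines were seeded in 1536-well plates, dosed by pin tool the next day, and fixed and stained after 5 days in one step with final 0.05% Triton X-100, 1% formaldehyde and 1 ug/ml Hoechst. Dosing was a single drug or a fixed anchor-drug dose plus five library-drug doses (not always all listed) in √10 steps, and values are medians of duplicate plates imaged at 4×.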

COR-L 105 = test system: COR-L 105
Method in brief: as §1

EPLC-272H = test system: EPLC-272H
Method in brief: as §1

HCC-366 = test system: HCC-366
Method in brief: as §1

HCC-78 = test system: HCC-78
Method in brief: as §1

HOP-62 = test system: HOP-62
Method in brief: as §1

LC-2-ad = test system: LC-2-ad
Method in brief: as §1

LCLC-97TM1 = test system: LCLC-97TM1
Method in brief: as §1

LU99A = test system: LU99A
Method in brief: as §1

LXF-289 = test system: LXF-289
Method in brief: as §1

NCI-H1755 = test system: NCI-H1755
Method in brief: as §1

NCI-H1793 = test system: NCI-H1793
Method in brief: as §1

NCI-H1915 = test system: NCI-H1915
Method in brief: as §1

NCI-H1944 = test system: NCI-H1944
Method in brief: as §1

NCI-H1975 = test system: NCI-H1975
Method in brief: as §1

NCI-H2085 = test system: NCI-H2085
Method in brief: as §1

NCI-H2170 = test system: NCI-H2170
Method in brief: as §1

NCI-H2342 = test system: NCI-H2342
Method in brief: as §1

NCI-H358 = test system: NCI-H358
Method in brief: as §1

NCI-H460 = test system: NCI-H460
Method in brief: as §1

SK-LU-1 = test system: SK-LU-1
Method in brief: as §1

SW 900 = test system: SW 900
Method in brief: as §1

UMC-11 = test system: UMC-11
Method in brief: as §1

COc1cc(N2CCC(C(N)=O)CC2)ccc1Nc1nc(N)c(Cl)c(Nc2ccccc2S(=O)(=O)C(C)C)n1 [HG-5-88-01] + COc1cc2c(Oc3ccc(NC(=O)C4(C(=O)Nc5ccc(F)cc5)CC4)cc3F)ccnc2cc1OCCCN1CCOCC1 [Foretinib] (partner 0.25 µM)
relative viability (A-427; first compound 0.04 µM): 1.13 | relative viability (A-427; first compound 0.1265 µM): 1.13 | relative viability (A-427; first compound 0.4 µM): 0.953 | relative viability (A-427; first compound 1.265 µM): 1.08 | relative viability (A-427; first compound 4 µM): 1.08 | relative viability (COR-L 105; first compound 0.04 µM): 1.05 | relative viability (COR-L 105; first compound 0.1265 µM): 1.11 | relative viability (COR-L 105; first compound 0.4 µM): 1.16 | relative viability (COR-L 105; first compound 1.265 µM): 0.969 | relative viability (COR-L 105; first compound 4 µM): 0.629 | relative viability (EPLC-272H; first compound 0.04 µM): 0.761 | relative viability (EPLC-272H; first compound 0.1265 µM): 0.735 | relative viability (EPLC-272H; first compound 0.4 µM): 0.593 | relative viability (EPLC-272H; first compound 1.265 µM): 0.472 | relative viability (EPLC-272H; first compound 4 µM): 0.0478 | relative viability (HCC-366; first compound 0.04 µM): 0.955 | relative viability (HCC-366; first compound 0.1265 µM): 0.915 | relative viability (HCC-366; first compound 0.4 µM): 0.909 | relative viability (HCC-366; first compound 1.265 µM): 0.856 | relative viability (HCC-366; first compound 4 µM): 0.45 | relative viability (HCC-78; first compound 0.04 µM): 0.589 | relative viability (HCC-78; first compound 0.1265 µM): 0.533 | relative viability (HCC-78; first compound 0.4 µM): 0.583 | relative viability (HCC-78; first compound 1.265 µM): 0.377 | relative viability (HCC-78; first compound 4 µM): 0.464 | relative viability (HOP-62; first compound 0.04 µM): 1.15 | relative viability (HOP-62; first compound 0.1265 µM): 1.12 | relative viability (HOP-62; first compound 0.4 µM): 1.01 | relative viability (HOP-62; first compound 1.265 µM): 1.13 | relative viability (HOP-62; first compound 4 µM): 1.3 | relative viability (LC-2-ad; first compound 0.04 µM): 0.987 | relative viability (LC-2-ad; first compound 0.1265 µM): 0.906 | relative viability (LC-2-ad; first compound 0.4 µM): 0.956 | relative viability (LC-2-ad; first compound 1.265 µM): 0.54 | relative viability (LC-2-ad; first compound 4 µM): 0.739 | relative viability (LCLC-97TM1; first compound 0.04 µM): 0.893 | relative viability (LCLC-97TM1; first compound 0.1265 µM): 0.972 | relative viability (LCLC-97TM1; first compound 0.4 µM): 0.882 | relative viability (LCLC-97TM1; first compound 1.265 µM): 0.864 | relative viability (LCLC-97TM1; first compound 4 µM): 0.326 | relative viability (LU99A; first compound 0.04 µM): 0.774 | relative viability (LU99A; first compound 0.1265 µM): 0.751 | relative viability (LU99A; first compound 0.4 µM): 0.781 | relative viability (LU99A; first compound 1.265 µM): 0.83 | relative viability (LU99A; first compound 4 µM): 0.801 | relative viability (LXF-289; first compound 0.04 µM): 1.04 | relative viability (LXF-289; first compound 0.1265 µM): 0.937 | relative viability (LXF-289; first compound 0.4 µM): 0.977 | relative viability (LXF-289; first compound 1.265 µM): 0.977 | relative viability (LXF-289; first compound 4 µM): 1.05 | relative viability (NCI-H1755; first compound 0.04 µM): 0.876 | relative viability (NCI-H1755; first compound 0.1265 µM): 0.895 | relative viability (NCI-H1755; first compound 0.4 µM): 0.863 | relative viability (NCI-H1755; first compound 1.265 µM): 0.858 | relative viability (NCI-H1755; first compound 4 µM): 0.873 | relative viability (NCI-H1793; first compound 0.1265 µM): 0.787 | relative viability (NCI-H1793; first compound 0.4 µM): 0.615 | relative viability (NCI-H1793; first compound 4 µM): 0.423 | relative viability (NCI-H1915; first compound 0.04 µM): 1.22 | relative viability (NCI-H1915; first compound 0.1265 µM): 1.22 | relative viability (NCI-H1915; first compound 0.4 µM): 1.04 | relative viability (NCI-H1915; first compound 1.265 µM): 1.2 | relative viability (NCI-H1915; first compound 4 µM): 1.04 | relative viability (NCI-H1944; first compound 0.04 µM): 0.874 | relative viability (NCI-H1944; first compound 0.1265 µM): 0.884 | relative viability (NCI-H1944; first compound 0.4 µM): 0.917 | relative viability (NCI-H1944; first compound 1.265 µM): 0.883 | relative viability (NCI-H1944; first compound 4 µM): 0.886 | relative viability (NCI-H1975; first compound 0.04 µM): 1.08 | relative viability (NCI-H1975; first compound 0.1265 µM): 0.923 | relative viability (NCI-H1975; first compound 0.4 µM): 0.814 | relative viability (NCI-H1975; first compound 1.265 µM): 0.916 | relative viability (NCI-H1975; first compound 4 µM): 0.397 | relative viability (NCI-H2085; first compound 0.04 µM): 0.852 | relative viability (NCI-H2085; first compound 0.1265 µM): 0.947 | relative viability (NCI-H2085; first compound 0.4 µM): 0.907 | relative viability (NCI-H2085; first compound 1.265 µM): 0.704 | relative viability (NCI-H2085; first compound 4 µM): 0.807 | relative viability (NCI-H2170; first compound 0.04 µM): 1.01 | relative viability (NCI-H2170; first compound 0.1265 µM): 0.973 | relative viability (NCI-H2170; first compound 0.4 µM): 0.967 | relative viability (NCI-H2170; first compound 1.265 µM): 0.947 | relative viability (NCI-H2170; first compound 4 µM): 1.12 | relative viability (NCI-H2342; first compound 0.04 µM): 1.19 | relative viability (NCI-H2342; first compound 0.1265 µM): 1.06 | relative viability (NCI-H2342; first compound 0.4 µM): 1.13 | relative viability (NCI-H2342; first compound 1.265 µM): 0.697 | relative viability (NCI-H2342; first compound 4 µM): 1.04 | relative viability (NCI-H358; first compound 0.04 µM): 0.676 | relative viability (NCI-H358; first compound 0.1265 µM): 0.605 | relative viability (NCI-H358; first compound 0.4 µM): 0.479 | relative viability (NCI-H358; first compound 1.265 µM): 0.224 | relative viability (NCI-H358; first compound 4 µM): 0.23 | relative viability (NCI-H460; first compound 0.04 µM): 1.03 | relative viability (NCI-H460; first compound 0.1265 µM): 1.01 | relative viability (NCI-H460; first compound 0.4 µM): 0.929 | relative viability (NCI-H460; first compound 1.265 µM): 0.959 | relative viability (NCI-H460; first compound 4 µM): 0.926 | relative viability (SK-LU-1; first compound 0.04 µM): 0.839 | relative viability (SK-LU-1; first compound 0.1265 µM): 0.834 | relative viability (SK-LU-1; first compound 0.4 µM): 0.751 | relative viability (SK-LU-1; first compound 1.265 µM): 0.738 | relative viability (SK-LU-1; first compound 4 µM): 0.618 | relative viability (SW 900; first compound 0.04 µM): 0.996 | relative viability (SW 900; first compound 0.1265 µM): 1.08 | relative viability (SW 900; first compound 0.4 µM): 0.926 | relative viability (SW 900; first compound 1.265 µM): 0.918 | relative viability (SW 900; first compound 4 µM): 0.493 | relative viability (UMC-11; first compound 0.04 µM): 1.09 | relative viability (UMC-11; first compound 0.1265 µM): 1.07 | relative viability (UMC-11; first compound 1.265 µM): 0.923 | relative viability (UMC-11; first compound 4 µM): 0.371
